According to publication PMC8321240, “Cell-Type-Specific High Throughput Toxicity Testing in Human Midbrain Organoids” (Frontiers in Molecular Neuroscience, 2021):
pIC50: −log10 of the molar value.

What was measured:
[1] = test system: automated midbrain organoids (AMOs); assay: Primary organoid viability screen (ATP-based CellTiter-Glo 3D); format: cell-based, human; conditions: approx. 100 μM, 48 or 96 h, two AMO lines
Experimental: We cultured AMOs for 47 days in our automated system as described above. On day 47, we exchanged the organoid medium to a minimal tox medium (TM, consisting of DMEM/F-12 with 1% N2 supplement and 1% penicillin/streptomycin/glutamine) to reduce possible interference from antioxidants in the B27 media supplement. The next day, we treated the AMOs with the compounds from the library at a concentration of 100 μM in TM with some deviations due to solubility (see Supplementary Table 1 for a complete list of compounds including their final concentrations in the screen). DMSO control samples contained 0.5% (v/v) DMSO, which is equivalent to the amount of solvent in the samples that received compound treatment. After 48 h of incubation with the compounds, we either directly processed the organoids for the 48-h time point or renewed the compounds in TM once to achieve 96 h of incubation. […] We recorded the luminescence immediately after the transfer using a Synergy Mx plate reader (BioTek). […]
In detail: All compounds including their controls were arrayed on a single 96-well plate (see Supplementary Table 1 for well positions), and replicated across three plates for a total of n = 3 replicates per condition (except AMO line 2 at 48 h n = 2). […] During our analysis, we first averaged the two technical replicates from the luminescence measurement in Microsoft Excel, yielding one averaged luminescence value for each well of the original 96-well AMO plates. Then, we normalized the luminescence detected in each well to the mean luminescence of the four DMSO controls of the same plate to get a relative organoid viability value. Normalization was performed separately for each plate to account for and correct for potential differences during the luminescence measurements. […] We further assessed the homogeneity of the AMOs by calculating the coefficient of variation (CV) for the relative viabilities of the DMSO controls (i.e., we divided the standard deviations by the corresponding means and averaged the resulting CV values for the DMSO controls). […]

[2] = test system: 2D cultured dopaminergic neurons; parameters: method as in Sharma et al., 2010; conditions: ref Sharma et al., 2010; cited from earlier work
[3] = test system: 2D-cultured midbrain dopaminergic (mDA) neurons; assay: Viability of 2D-cultured mDA neurons (CellTiter-Glo 2.0) in the 2D vs 3D comparison; format: cell-based; conditions: Homo sapiens, Neuron, 2D mDA neurons, 48 h exposure from day 50
Experimental: To compare the toxic effects of compounds on AMOs and 2D-cultured midbrain dopaminergic neurons, we seeded and cultured both in parallel and generated them from the same smNPC starting cell population. For 2D dopaminergic neuron differentiation, smNPCs were seeded in 1% (v/v in KO-DMEM/F-12) Matrigel-coated 6-well plates and standard smNPC medium, following digestion by accutase as described above. From day 2 onwards, they were treated identically with the AMOs (i.e., they received the same media at the same timepoints). To work with the 2D dopaminergic neurons in a screening setting (and have the same plate format as the AMOs), we reseeded them to flat-bottom 96-well plates (“μCLEAR”, black, Greiner) at a density of 70,000 cells/well on day 48. On day 49, the medium of both 2D mDA neurons and 3D AMOs was exchanged to tox medium. The next day, we treated them with different concentrations (0.01, 0.1, 1, 10, 50, 100, 200, 500, and 1,000 μM; controls received the corresponding solvent at an amount equivalent to the highest compound concentration; n = 6 per concentration) of the compounds lindane (Sigma-Aldrich, in ethanol) and 6-hydroxydopamine hydrochloride (Sigma Aldrich, in DMSO) in tox medium. After 48 h of incubation, we measured the samples’ viability. For the AMOs, we used the CellTiter-Glo 3D cell viability assay as described above. We measured the 2D mDA neuron viability with the CellTiter-Glo 2.0 cell viability assay (Promega) according to the manufacturer’s instructions. In short, we brought the sample plates and reagents to room temperature for 30 min. We adjusted the media volume of the samples to 50 μl and added an equal volume (50 μl) of the CellTiter-Glo 2.0 reagent. We let the plate shake for 2 min at 900 rpm on a Thermomixer and then incubated them for 10 min at room temperature and protected from light. Immediately afterward, we measured the luminescence on a Synergy Mx plate reader. We outputted the results to Microsoft Excel and GraphPad Prism v9.0.1 for reformatting, plotting, and analysis. Data processing was performed as outlined for the CellTiter-Glo 3D-based viability assay above, except for the averaging of technical replicates, as measurements were performed directly in the culture plate without additional technical replicates.
All other data analysis steps including the statistical analysis to identify significant differences in toxicity between 2D and 3D (via multiple unpaired t-tests with the same parameters as above, corrected for using the Bonferroni-Dunn method, and considering padj <0.05 as significant), as well as dose-response curve fitting, were performed as described in detail above. The IC50 values were taken from the same regression/analysis as the dose-response curves.

[4] = test system: automated midbrain organoids (AMOs); assay: Viability of 3D AMOs (CellTiter-Glo 3D) in the 2D vs 3D comparison; format: cell-based, human; conditions: for pIC50: Homo sapiens, 48 h exposure from day 50
Experimental: We cultured AMOs for 47 days in our automated system as described above. On day 47, we exchanged the organoid medium to a minimal tox medium (TM, consisting of DMEM/F-12 with 1% N2 supplement and 1% penicillin/streptomycin/glutamine) to reduce possible interference from antioxidants in the B27 media supplement. The next day, we treated the AMOs with the compounds from the library at a concentration of 100 μM in TM with some deviations due to solubility (see Supplementary Table 1 for a complete list of compounds including their final concentrations in the screen). DMSO control samples contained 0.5% (v/v) DMSO, which is equivalent to the amount of solvent in the samples that received compound treatment. After 48 h of incubation with the compounds, we either directly processed the organoids for the 48-h time point or renewed the compounds in TM once to achieve 96 h of incubation. Following either 48 or 96 h of compound incubation, we used the CellTiter-Glo 3D cell viability assay (Promega) to measure the viability of individual organoids, as previously described (Renner et al., [2020]). Briefly, the 96-well plates of AMOs and the reagents were brought to room temperature for 30 min. We adjusted the media volume of each well to 55 μl and added an equal volume (55 μl) of the CellTiter-Glo 3D reagent. Next, the samples were shaken on a Thermomixer (Eppendorf) at 900 rpm for 5 min and then incubated for 25 min at room temperature while protected from light. To minimize signal cross-talk between adjacent wells, we transferred the contents of the clear 96-well culture plates to white/opaque 384-well Lumitrac plates (Greiner) with two technical replicates (20 μl each) per sample, after the incubation. We recorded the luminescence immediately after the transfer using a Synergy Mx plate reader (BioTek). We outputted the results to Microsoft Excel for reformatting and then transferred them to GraphPad Prism v9.0.1 (Graphpad Software, Inc.) for plotting and statistical analysis.
To compare the toxic effects of compounds on AMOs and 2D-cultured midbrain dopaminergic neurons, we seeded and cultured both in parallel and generated them from the same smNPC starting cell population. For 2D dopaminergic neuron differentiation, smNPCs were seeded in 1% (v/v in KO-DMEM/F-12) Matrigel-coated 6-well plates and standard smNPC medium, following digestion by accutase as described above. From day 2 onwards, they were treated identically with the AMOs (i.e., they received the same media at the same timepoints). To work with the 2D dopaminergic neurons in a screening setting (and have the same plate format as the AMOs), we reseeded them to flat-bottom 96-well plates (“μCLEAR”, black, Greiner) at a density of 70,000 cells/well on day 48. On day 49, the medium of both 2D mDA neurons and 3D AMOs was exchanged to tox medium. The next day, we treated them with different concentrations (0.01, 0.1, 1, 10, 50, 100, 200, 500, and 1,000 μM; controls received the corresponding solvent at an amount equivalent to the highest compound concentration; n = 6 per concentration) of the compounds lindane (Sigma-Aldrich, in ethanol) and 6-hydroxydopamine hydrochloride (Sigma Aldrich, in DMSO) in tox medium. After 48 h of incubation, we measured the samples’ viability. For the AMOs, we used the CellTiter-Glo 3D cell viability assay as described above. We measured the 2D mDA neuron viability with the CellTiter-Glo 2.0 cell viability assay (Promega) according to the manufacturer’s instructions. In short, we brought the sample plates and reagents to room temperature for 30 min. We adjusted the media volume of the samples to 50 μl and added an equal volume (50 μl) of the CellTiter-Glo 2.0 reagent. We let the plate shake for 2 min at 900 rpm on a Thermomixer and then incubated them for 10 min at room temperature and protected from light. Immediately afterward, we measured the luminescence on a Synergy Mx plate reader. […]

[5] = test system: automated midbrain organoids (AMOs); assay: Dose-response analysis, ATP-based overall AMO viability; format: cell-based, human; conditions: 0.01-1,000 μM (rotenone up to 100 μM), 48 h + 6 days, both AMO lines
Experimental: AMOs were cultured as described above for 47 days. On day 47, we exchanged their medium to tox medium (TM), initially without the addition of any compounds. […] For each compound, we included n = 8 controls per compound treated with the corresponding solvent at an amount equivalent to the highest compound concentration. To assess viability and cell type-specific toxicity in parallel and under the same conditions, we treated all samples with the compounds for 48 h, then exchanged their medium to standard culture medium without compounds and maintained them for an additional 6 days before analysis to allow breakdown and removal of cellular debris. Organoid viability and cell type-specific toxicity were analyzed as described for the primary screens. Here, we acquired five confocal planes spaced 36.6 μm apart in our Operetta high content imager. The image analysis of the AMOs for cell type-specific toxicity assessment required minor adjustments to account for the individual properties of the staining. […] For Map2, we performed Gaussian smoothing with a width of 10 px and omitted the additional sliding parabola filter. The other steps were performed as outlined for the primary cell-type-specific toxicity screen. […] In detail: The dose-response series, including the individual solvent controls, was performed for every compound on a separate 96-well plate of AMOs with initially n = 8 organoids per concentration. […] Data processing, including normalizations, was performed for each individual compound/plate as outlined above for the primary screens. Significant differences between the Map2 and TH content were also determined in GraphPad Prism as described for the primary screen and with the same parameters (multiple comparisons were performed for the different concentrations instead of compounds).

[6] = test system: TH+ dopaminergic and Map2+ general neurons in AMOs; assay: Dose-response analysis, TH and Map2 content by high content imaging; format: cell-based, human; conditions: 0.01-1,000 μM (rotenone up to 100 μM), 48 h + 6 days, both AMO lines
Experimental: All processing steps were conducted in an HTS-compatible automated liquid handling system (ALHS, a Biomek FXP liquid handling station). To quantify different cellular subpopulations within the AMOs, we employed our previously described (Renner et al., [2020], [2021b]) ALHS-compatible workflow for combined whole-mount staining and clearing, with minor modifications. We fixed the AMOs with 4% PFA (VWR) for 10–15 min and stained the entire aggregates with primary and secondary antibodies for 6 days each. The antibodies used in this study were as follows. Primary: mouse anti-Map2 (1:1,000, Merck Millipore, cat#: MAB3418) and rabbit anti-TH (1:500, Abcam, cat#: ab112). Secondary: donkey anti-mouse IgG, Alexa Fluor 488 conjugated (1:1,000, Thermo Fisher, cat#: A-21202) and donkey anti-rabbit IgG, Alexa Fluor 647 conjugated (1:1,000, Thermo Fisher, cat#: A-31573). The antibodies were diluted in blocking and permeabilization solution consisting of 6% BSA, 0.5% Triton-X 100 (Roth), 0.1% (w/v) sodium azide (Sigma-Aldrich) in PBS (Sigma-Aldrich) and immediately added after fixation following a triple rinse with PBS. We renewed the antibody solutions once after three days. As a nuclear counter stain, we added DAPI (1 μg/ml, Sigma-Aldrich) to the solution containing the secondary antibodies. Between primary and secondary antibody application and after finishing the secondary antibody incubation, we washed the samples overnight with 0.1% Triton X-100 in PBS, with a total of five exchanges of the washing solution. After the whole-mount staining, we performed BABB-based tissue clearing (Dent et al., [1989]) to allow image acquisition with single-cell resolution of the entire aggregates. For this purpose, we first dehydrated the AMOs via a stepwise methanol (Roth) series (25%, 50%, 70%, 90%, and 100%, each for 15 min). For clearing and imaging, we transferred them to organic solvent-resistant cyclo-olefin 96-well flat-bottom plates (“Screenstar”, Greiner Bio-One). Finally, we incubated the samples for 30 min in 1:1 (v/v) methanol/BABB (BABB consisted of benzyl alcohol (Sigma-Aldrich) and benzyl benzoate (Sigma-Aldrich) at a 1:1 (v/v) ratio) and then kept them in 100% BABB in the dark for storage and subsequent automated high content confocal fluorescent analysis.
We prepared and treated the AMOs with the compounds as described for the primary viability screen. On day 50, after 48 h of compound incubation, we replaced the medium with standard AMO medium and maintained the AMOs for 6 additional days under standard culture conditions. This additional time allows the cells killed by the compounds to be cleared from the aggregates. After the 6 days, we fixed the organoids with 4% PFA, whole-mount-stained them for TH and Map2, and tissue-cleared them as described above. To achieve uniform aggregate positioning within the wells before imaging, we tilted the plates off the horizontal plane at 60 degrees for a minimum of 5 min. We performed automated image acquisition of entire 96-well plates on an Operetta high content imager (Perkin Elmer) and analyzed images in the Harmony 4.1 software and/or Columbus version 2.6.0 as previously described (Renner et al., [2020]), with adjustments to account for the individual properties of the staining and samples. We acquired three medial planes for each organoid, spaced 36.6 μm apart to avoid double-sampling individual morphological features. For the analysis, we defined the organoid region in each image by summing all channels, removed small localized features with a median filter (10 px), and identified putative organoids/regions of interest (ROIs) with the “find image region” function. To identify bona fide AMOs and exclude image artifacts and dust, we selected the ROIs with an area >9,000 μm^2, roundness >0.4, and mean DAPI intensity >190 arbitrary brightness units (abu).

| SMILES | toxicity in the primary screens [1] | toxicity of lindane alone [2] | pIC50 ([3]; AMO line 1 cell line) | pIC50 ([3]; AMO line 2 cell line) | concentrations with significant 2D vs 3D viability difference ([4]; AMO line 1, 48 h) [µM] | concentrations with significant 2D vs 3D viability difference ([4]; AMO line 2, 48 h) [µM] | pIC50 ([4]; AMO line 1, 3D) | pIC50 ([4]; AMO line 2, 3D) | toxicity in 3D AMOs compared with 2D-cultured dopaminergic neurons ([4]; both cell lines, 48 h, 0.01-1,000 μM, padj < 0.05) | viability [5] | Map2 content (general neurons) [6] | TH content (dopaminergic neurons) [6] |
| --- | --- | --- | --- | --- | --- | --- | --- | --- | --- | --- | --- | --- |
| Cl[C@H]1[C@H](Cl)[C@@H](Cl)[C@@H](Cl)[C@H](Cl)[C@H]1Cl [lindane] | strong possible toxicity | only mild toxicity | 3.70 | 3.70 | ≥ 200 | 200 | 3.89 | 3.89 | significantly more toxic in AMOs than in the 2D-cultured dopaminergic neurons |  |  |  |
| Oc1c(Cl)cc(Cl)c(Cl)c1Cc1c(O)c(Cl)cc(Cl)c1Cl [HCP, hexachlorophene] | highly toxic |  |  |  |  |  |  |  |  | strongly reduced | strongly reduced | strongly reduced |
